PMC12285096, “Tirzepatide mitigates Stroke-Induced Blood-Brain barrier disruption by modulating Claudin-1 and C/EBP-α pathways” (Molecular Medicine, 2025)

How the values were obtained:
Claudin-1 = Claudin-1 expression in mouse cortex (RT-PCR, immunostaining); assay type: in vivo; conditions: for Claudin-1 levels (mRNA): C/EBP-α experiment, Fig. 5C; for Claudin-1 expressions in cortex tissue (mRNA, protein by immunostaining): Fig. 3A, B
Description: Mouse brain cortex samples were traditionally fixed in a 10% formaldehyde solution, embedded in paraffin, sectioned, and then dehydrated. Endogenous peroxidase activity was quenched by incubating the sections with a 3% hydrogen peroxide solution for 30 min. Antigen retrieval was carried out using ethylenediaminetetraacetic acid (EDTA) under pressure. After sealing for 30 min, slides were incubated overnight at 4 °C with primary antibodies specific for Claudin-1 (Abcam, USA), diluted at a ratio of 1:400. This incubation period was extended to ensure thorough binding. Subsequently, the slides were washed and incubated with secondary antibodies (1:400, Abcam, USA) for 15 min. Finally, the slides were developed using a DAB chromogenic substrate system, counterstained with hematoxylin, differentiated with an ethanol solution containing hydrochloric acid, subjected to a bluing step with running tap water, rinsed with deionized water, dehydrated, and covered with a protective cover slip. Visual documentation was obtained using a microscope (Zeiss, Germany). 1 mL of RNAiso Plus solution was added to the pulverized rodent cerebral cortex samples or cellular material. Following complete homogenization, the liquid fraction was extracted after high-speed centrifugation. The overall RNA pellet was then washed with 75% ethanol, and the RNA was subsequently harvested for reverse transcription. These specific procedures were carried out in accordance with the instructions provided in the PrimeScript RT reagent Kit (TaKaRa, Japan). Real-time PCR detection was performed following the experimental protocols of the Applied Biosystems 7300 instrument. Gene expression levels were determined based on cycle threshold counts.

HBMVECs = assay: FITC-dextran permeation across OGD/R-challenged HBMVECs; assay type: cell-based, human
Description: HBMVECs were sourced from ATCC (USA). These cells were cultivated in a medium specifically designed for endothelial cultures, enriched with 10% FBS, and maintained in an incubator set at a temperature of 37 °C with 5% CO2. For OGD/R modeling, the culture medium was replaced with a serum-free, glucose-free medium, and then it was placed in a hypoxic environment (1% O2, 5% CO2, 94% N2) at a 37 °C incubator for 10 h. After 10 h, the normal medium containing serum was added, and the normal oxygen supply was restored. The cells were then kept in a 37 °C constant temperature incubator for 24 h of reoxygenation. To silence C/EBP-α, HBMVECs were transduced with adenovirus harboring a short hairpin RNA (shRNA) specifically designed to knock down C/EBP-α (Ad-viral sh-C/EBP-α) for 48 h. A serum-free medium was used to dilute FITC-dextran to various concentrations for the establishment of a calibration curve. Subsequently, HBMVECs were cultured in the upper section of the Transwell setup. Thereafter, 100 µL of a 1 mg/mL FITC-conjugated dextran solution was added to the upper section and allowed to rest for 1 h in a shielded environment at 37 °C with 5% CO2. Post incubation, 100 µL of fluid was drawn from the lower section, and the luminescence intensity of the fluid in the lower section was quantified using a luminescence photometer (494/520 nm). Regarding the calibration curve and the observed luminescence intensity, the permeation level of FITC-dextran across the Transwell chamber was computed (µg/mL).

C/EBP-α = C/EBP-α expression in OGD/R-stimulated HBMVECs (real-time PCR, western blot); assay type: cell-based, human; conditions: OGD/R + 50 and 100 nM TZP vs. OGD/R, Fig. 8A, B
Description: 1 mL of RNAiso Plus solution was added to the pulverized rodent cerebral cortex samples or cellular material. Following complete homogenization, the liquid fraction was extracted after high-speed centrifugation. The overall RNA pellet was then washed with 75% ethanol, and the RNA was subsequently harvested for reverse transcription. These specific procedures were carried out in accordance with the instructions provided in the PrimeScript RT reagent Kit (TaKaRa, Japan). Real-time PCR detection was performed following the experimental protocols of the Applied Biosystems 7300 instrument. Gene expression levels were determined based on cycle threshold counts. Claudin-1 and C/EBP-α were analyzed in brain homogenates (right hemisphere: Sham, MCAO, MCAO + TZP) and HBMVECs (Control, […] lysis solution, composed of 1% protease inhibitor in RIPA buffer (Sigma-Aldrich, R0278), was introduced to samples, which were homogenized over ice for 30 min. The homogenate was centrifuged at 13,500 rpm for 10 min at 4 °C. Protein was quantified using the BCA assay kit (Sigma-Aldrich, BCA1), and 50 μg protein/lane was separated on 10% SDS-PAGE and transferred to PVDF in electrophoresis buffer at 200 mA for 2 h. The membrane was blocked with 5% skim milk in TBST for 1 h. […] Bands were detected via ECL (Bio-Rad, 1705061), quantified with ImageJ, and normalized to GAPDH. […]

CC[C@H](C)[C@H](NC(=O)[C@H](CC(C)C)NC(=O)[C@H](Cc1c[nH]c2ccccc12)NC(=O)[C@H](CCC(N)=O)NC(=O)[C@@H](NC(=O)[C@H](Cc1ccccc1)NC(=O)[C@H](C)NC(=O)[C@H](CCCCNC(=O)COCCOCCNC(=O)COCCOCCNC(=O)CC[C@H](NC(=O)CCCCCCCCCCCCCCCCCCC(=O)O)C(=O)O)NC(=O)[C@H](CCC(N)=O)NC(=O)[C@H](C)NC(=O)[C@@H](NC(=O)[C@H](CCCCN)NC(=O)[C@H](CC(=O)O)NC(=O)[C@H](CC(C)C)NC(=O)C(C)(C)NC(=O)[C@@H](NC(=O)[C@H](CO)NC(=O)[C@H](Cc1ccc(O)cc1)NC(=O)[C@H](CC(=O)O)NC(=O)[C@H](CO)NC(=O)[C@@H](NC(=O)[C@H](Cc1ccccc1)NC(=O)[C@@H](NC(=O)CNC(=O)[C@H](CCC(=O)O)NC(=O)C(C)(C)NC(=O)[C@@H](N)Cc1ccc(O)cc1)[C@@H](C)O)[C@@H](C)O)[C@@H](C)CC)[C@@H](C)CC)C(C)C)C(=O)N[C@@H](C)C(=O)NCC(=O)NCC(=O)N1CCC[C@H]1C(=O)N[C@@H](CO)C(=O)N[C@@H](CO)C(=O)NCC(=O)N[C@@H](C)C(=O)N1CCC[C@H]1C(=O)N1CCC[C@H]1C(=O)N1CCC[C@H]1C(=O)N[C@@H](CO)C(N)=O [TZP, Tirzepatide]
Claudin-1 levels (mRNA) (Claudin-1; MCAO + C/EBP-α-/- + TZP vs. MCAO + TZP): strikingly repressed
Claudin-1 levels (mRNA) (Claudin-1; MCAO + TZP WT mice vs. MCAO): sharply enhanced
Claudin-1 expressions in cortex tissue (mRNA, protein by immunostaining) (Claudin-1; MCAO + TZP vs. MCAO (markedly diminished), 10 nmol/kg i.p. weekly, 8 weeks): strikingly enhanced
Claudin-1 expressions in cortex tissue (mRNA, protein by immunostaining) (Claudin-1; TZP group (sham-operated, 10 nmol/kg i.p. weekly, 8 weeks) vs. Sham): remarkably enhanced
FITC concentrations in the lower chamber (FITC-dextran permeation) (HBMVECs; OGD/R + 50 nM TZP, 24 h, control 0.41, OGD/R 1.15, Fig. 6A): 0.83 mg/mL
FITC concentrations in the lower chamber (FITC-dextran permeation) (HBMVECs; OGD/R + 100 nM TZP, 24 h, control 0.41, OGD/R 1.15, Fig. 6A): 0.57 mg/mL
FITC concentrations in the lower chamber (FITC-dextran permeation) (HBMVECs; sh-C/EBP-α experiment, OGD/R + TZP (100 nM), control 0.42, OGD/R 1.03, Fig. 9B): 0.61 mg/mL
FITC concentrations in the lower chamber (FITC-dextran permeation) (HBMVECs; sh-C/EBP-α experiment, OGD/R + sh-C/EBP-α + TZP (100 nM), control 0.42, OGD/R 1.03, Fig. 9B): 0.93 mg/mL
C/EBP-α levels (mRNA, protein) (C/EBP-α): largely promoted
